Paper PMC4133868 (BMB Reports, 2013)

Experiments:
t-bCblC [1] = molecular target: T1, t-bCblC (Bos taurus, UniProt Q5E9C8); assay: Isothermal titration calorimetry; assay type: binding, bovine
T1 sequence (Q5E9C8 1-244): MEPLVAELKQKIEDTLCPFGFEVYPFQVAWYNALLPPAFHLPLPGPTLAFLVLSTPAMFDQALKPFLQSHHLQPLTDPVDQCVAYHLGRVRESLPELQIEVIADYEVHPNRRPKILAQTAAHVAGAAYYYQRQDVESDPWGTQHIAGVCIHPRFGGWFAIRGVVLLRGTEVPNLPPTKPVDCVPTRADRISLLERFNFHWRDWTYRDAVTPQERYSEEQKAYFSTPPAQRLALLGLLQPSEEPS

t-bCblC [2] = molecular target: T1, t-bCblC
f-bCblC [3] = molecular target: T2, f-bCblC (Bos taurus, UniProt Q5E9C8)
T2 sequence (Q5E9C8 1-280): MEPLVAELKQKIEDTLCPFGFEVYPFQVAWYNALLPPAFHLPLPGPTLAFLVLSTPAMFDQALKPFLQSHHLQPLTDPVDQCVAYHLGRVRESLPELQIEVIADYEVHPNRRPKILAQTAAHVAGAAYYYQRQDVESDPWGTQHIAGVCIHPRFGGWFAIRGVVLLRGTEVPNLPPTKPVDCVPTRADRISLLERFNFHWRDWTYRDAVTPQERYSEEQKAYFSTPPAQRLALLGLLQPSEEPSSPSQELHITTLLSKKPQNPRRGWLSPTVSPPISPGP

f-bCblC [4] = molecular target: T2, f-bCblC; details: read-out: Kd of GSH for f-bCblC (ITC); cited from earlier work
t-bCblC [5] = molecular target: T1, t-bCblC; assay: biochemical
f-bCblC [6] = molecular target: T2, f-bCblC; assay: biochemical
[7] = hyperbolic fit of ΔTm vs GSH concentration

N[C@@H](CCC(=O)N[C@@H](CS)C(=O)NCC(=O)O)C(=O)O [GSH, glutathione]
Kd (t-bCblC [1]): 206 ± 35 µM
melting temperature Tm of t-bCblC in the presence of GSH (t-bCblC [2]; 10 mM GSH, Tm without GSH 41.5 ± 0.3℃): 45.2 ± 0.3 °C
maximal ΔTm (ΔTm max) of t-bCblC (t-bCblC [2]; [7]): 5.2 ± 0.2 °C
melting temperature Tm of f-bCblC in the presence of GSH (f-bCblC [3]; 10 mM GSH, Tm without GSH 42.1 ± 0.4℃): 44.2 ± 0.3 °C
maximal ΔTm (ΔTm max) of f-bCblC (f-bCblC [3]; [7]): 2.8 ± 0.3 °C
Kd (f-bCblC [4]): 355 ± 40 µM
AC50 (t-bCblC [5]): 2800 ± 300 µM
AC50 (f-bCblC [6]): 3100 ± 300 µM
